Measured values reported in publication PMC12040169 (PLOS Biology, 2025).

Assay: in vitro
Conditions: human, hela cells, % viability

| Compound | viability at 28.5 h, 10 µM |
| --- | --- |
| CC(C)C(=O)N1CCCC1c1cc2n(n1)[C@@H](C(F)(F)F)C[C@@H](C)N2 (stereo partly shown) [CBK282966] | 106% |
| CCc1c(C)sc2ncn(C3CCNCC3)c(=O)c12 [CBK282972] | 81.2% |
| Cc1ccsc1CN(Cc1nccn1C)CC(C)O (stereo not shown) [CBK282976] | 92.3% |
| Cc1nn(C(C)C)c(C)c1CN(CCCN(C)C)Cc1ccco1 [CBK282978] | 86.8% |
| O=C(C1CC1)N1CCC(c2nc(Cc3cccs3)no2)C1 (stereo not shown) [CBK282980] | 89.6% |
| Fc1ccccc1CN(CCCn1ccnc1)Cc1ccncc1 [CBK282981] | 102% |
| Cc1ccsc1CN(CCCO)Cc1cn(C)nc1C [CBK282983] | 95.7% |
| Cc1c(CNC2(c3ccccc3F)CCCC2)c(=O)n(C)c(=O)n1C [CBK282986] | 85.1% |
| CCCc1cc(C2CCCCCN2C(=O)c2cccnc2)no1 (stereo not shown) [CBK282987] | 99.5% |
| Clc1ccccc1CN(CCCn1ccnc1)Cc1c[nH]cn1 [CBK282988] | 100% |
| COc1cccc(CN2CCCC(c3nc(C)n4ccccc34)C2)c1 (stereo not shown) [CBK282989] | 101% |
| COc1ccc([C@H]2C3CCCCC3[C@@H]2NC(=O)C2CCCO2)cc1 (stereo partly shown) [CBK282990] | 108% |
| Cc1cc(C)n(CC(=O)N2CCCC2c2ccc(C)c(C)c2)c(=O)n1 (stereo not shown) [CBK282991] | 99% |
| Cc1ncc(CN(CCN(C)C)Cc2cccs2)n1C [CBK282993] | 93.4% |
| O[C@@]1(c2ccccn2)CC[C@H]2CN(CC3CCCCC3)C[C@H]21 [CBK282996] | 96.9% |
| Cc1cc(C[C@@H]2CCC[C@H]2NCc2cc(Cl)ccc2O)on1 [CBK282997] | 103% |
| CC(C)N1CCC(N(C)Cc2c[nH]nc2C(C)(C)C)CC1 [CBK283002] | 92.9% |
| CCCC(=O)N1CCCC1c1cc2n(n1)[C@@H](C(F)(F)F)C[C@@H](C)N2 (stereo partly shown) [CBK283003] | 92.4% |
| COc1ccccc1CN[C@@H]1CCC[C@H]1Cc1cc(C)no1 [CBK283005] | 103% |
| CC(=O)OCc1ccc(CN2CCCCCC2c2cc(C)no2)o1 (stereo not shown) [CBK283007] | 100% |
| CCn1ncc(CN2CCCCCC2c2cc(C)no2)c1C (stereo not shown) [CBK283008] | 92.9% |
| OC1(c2cccnc2)CCCN(Cc2ccccc2F)CC1 (stereo not shown) [CBK283009] | 96.4% |
| O=C(Cn1cncn1)N[C@H]1C2CCCCC2[C@@H]1c1ccccc1 (stereo partly shown) [CBK283011] | 93.3% |
| CCC1c2cccn2CCN1Cc1cncn1CC (stereo not shown) [CBK283012] | 85.8% |

| Compound | viability at 28.5 h, 10 µM |
| --- | --- |
| Cc1nn(C)cc1CN(Cc1cccc(F)c1)CC1CCCO1 (stereo not shown) [CBK283013] | 100% |
| Cc1nn(C)cc1CN(Cc1ccccc1F)CC1CCCO1 (stereo not shown) [CBK283014] | 106% |
| C=Cn1cc(CN2C3CCC2CC(O)(c2ccc(C)cc2)C3)c(C)n1 (stereo not shown) [CBK283015] | 90.5% |
| Cc1nn(C(C)C)c(C)c1CN(CCO)Cc1cccs1 [CBK283016] | 86% |
| OCCN(Cc1cccnc1)Cc1cccn1-c1ccccc1F [CBK283019] | 92.2% |
| Cn1ccnc1CN(CCCn1ccnc1)Cc1ccccc1F [CBK283022] | 102% |
| OCCN(Cc1cccnc1)Cc1cccn1-c1ccc(F)cc1 [CBK283023] | 95.9% |
| Fc1ccccc1CN(CCCn1ccnc1)Cc1ccoc1 [CBK283024] | 89.9% |
| CC(C)n1nccc1C(=O)NCC(c1ccc(F)cc1)N1CCCC1 (stereo not shown) [CBK283025] | 87.3% |
| COc1ccccc1CN1CCCC(c2nc(C)n3ccccc23)C1 (stereo not shown) [CBK283026] | 87.6% |
| O=C(C1CCC1)N1CCC(c2nc(Cc3cccs3)no2)C1 (stereo not shown) [CBK283028] | 90.9% |
| Cc1ccc(CN[C@@H]2COC[C@H]2Cc2cc(C)no2)cc1 [CBK283030] | 106% |
| CC(C)n1nccc1C(=O)NCC(c1ccccc1F)N1CCCC1 (stereo not shown) [CBK283032] | 94.1% |
| Cc1ccccc1-n1nc(C)c(CN(C)CC2CCN(C)C2)c1C (stereo not shown) [CBK283035] | 82.6% |
| CCn1cncc1CN(Cc1ccc(F)cc1)CC1CCCO1 (stereo not shown) [CBK283036] | 98% |
| CN(C)CCCN(Cc1cnn(C)c1)Cc1ccco1 [CBK283039] | 112% |
| CN(C)CCCN(Cc1cnn(-c2ccccc2)c1)Cc1ccco1 [CBK283040] | 110% |
| O=C(NC1CCN(Cc2ccccc2)C1)c1ccc(F)cc1 (stereo not shown) [CBK283044] | 97.8% |
| Cc1cc(C2CCCCCN2C(=O)c2c(Cl)cnn2C)on1 (stereo not shown) [CBK283045] | 108% |
| Cn1ccc(C2CCCCCN2C(=O)c2cc(C3CC3)on2)n1 (stereo not shown) [CBK283050] | 104% |
| CCN(CC)Cc1ccc(C(=O)N2CCC(c3ccncc3)CC2)o1 [CBK283051] | 105% |
| Fc1ccc([C@@H]2CN(Cc3cccnc3)C[C@H]2c2cc[nH]n2)cc1 [CBK283054] | 100% |
| O=C(C1CC1)N1CC2CN(Cc3ccccc3)CC2C12CCOCC2 (stereo not shown) [CBK283055] | 103% |
| CCCC(=O)N1CCCC(c2nnc(-c3cccs3)o2)C1 (stereo not shown) [CBK283057] | 83.6% |

| Compound | viability at 28.5 h, 10 µM |
| --- | --- |
| Cc1ccc(-c2nnc(C3CCCN(C(=O)C(C)C)C3)o2)s1 (stereo not shown) [CBK283058] | 96.9% |
| CCc1cc(CNS(=O)(=O)Cc2cccc(F)c2)on1 [CBK283061] | 92.1% |
| O=C(CCn1ccnc1)NCC1Cc2ccccc2O1 (stereo not shown) [CBK283062] | 81% |
| Cc1cc(C)n(C)c(=O)c1C(=O)NC(C)Cc1ccccn1 (stereo not shown) [CBK283063] | 105% |
| CCc1cc(CNS(=O)(=O)c2ccc(C)s2)on1 [CBK283066] | 99.6% |
| CC1Cc2cc(CC(=O)N(C)CC(F)(F)F)ccc2O1 (stereo not shown) [CBK283067] | 109% |
| Cc1[nH]c2cccc(C(=O)N(C)CCc3cn[nH]c3)c2c1C [CBK283070] | 85.4% |
| CCCc1cc(C(=O)N2CCc3sccc3C2C)[nH]n1 (stereo not shown) [CBK283072] | 101% |
| CCCC(=O)NC(c1ccccn1)C1CCC(CNC(C)=O)CC1 (stereo not shown) [CBK283080] | 102% |
| CC(C)S(=O)(=O)N1C[C@@H](c2ccccc2)[C@H]2[C@H]1CCCCCN2C [CBK283083] | 91.1% |
| O=C(CN1CCCCCC1)N1CCCC1c1n[nH]cc1-c1cccc(Cl)c1 (stereo not shown) [CBK283084] | 94.7% |
| O=C(NC1(C#Cc2cnc3ccccc3c2)CCCCC1)C1CCCO1 (stereo not shown) [CBK283085] | 81.9% |
| OCC1CCN(Cc2cnn(C3CCCCC3)c2)C1 (stereo not shown) [CBK283086] | 88.4% |
| O=C(NCCn1cncn1)C1(c2ccccc2F)CC1 [CBK283087] | 87% |
| Cc1ccc([C@]2(O)CC[C@H]3CN(Cc4cccc(F)c4F)C[C@H]32)nc1 [CBK283088] | 98.1% |
| COc1ccc(N(Cc2cccnc2)C(=O)c2ccc(-c3ccccc3)[nH]c2=O)cc1 [CBK283089] | 105% |
| NC(=O)CN1C(=O)[C@@H]2CCCN2C(=O)c2ccccc21 [CBK283090] | 110% |
| CC1Cc2cc(C(O)CN3CCC(O)(c4ccccc4F)CC3)ccc2N1S(C)(=O)=O (stereo not shown) [CBK283091] | 87.5% |
| CC(=O)N1CCc2cc(C(O)CN3CCN(c4nsc5ccccc45)CC3)ccc21 (stereo not shown) [CBK283092] | 93.3% |
| CC(C)NC(=O)C1CN(Cc2ccccc2)CC12CCc1ccccc1C2NC(=O)CN (stereo not shown) [CBK283093] | 79.4% |
| Cc1oc2ccccc2c1CN(CCN(C)C)Cc1ccncc1 [CBK283097] | 87.8% |
| Cc1nn(C)cc1CN(CCCn1ccnc1)Cc1cccc(F)c1 [CBK283098] | 92.3% |
| Cc1ccc(CN(CCCn2ccnc2)Cc2cccnc2)o1 [CBK283100] | 106% |
| CCn1cncc1CN(CCCn1ccnc1)Cc1ccc(C)s1 [CBK283104] | 93.6% |

| Compound | viability at 28.5 h, 10 µM |
| --- | --- |
| OC1(c2ccc(F)cc2)CCC2CN(CC3CC3)CC21 (stereo not shown) [CBK283105] | 88.9% |
| Cc1ccc(CN(CCCn2ccnc2)Cc2cncn2C)s1 [CBK283106] | 90.2% |
| CS(=O)(=O)N1CC2CCCC(O)(c3cccc(F)c3)C2C1 (stereo not shown) [CBK283107] | 97.3% |
| CC(C)S(=O)(=O)N1CC2CCCC(O)(c3cccc(F)c3)C2C1 (stereo not shown) [CBK283109] | 109% |
| CCC(=O)N1CCc2cc(C(O)CN3CCCC3)ccc21 (stereo not shown) [CBK283110] | 97.7% |
| CCC(=O)N1CCc2cc(C(O)CN3CCCCC3)ccc21 (stereo not shown) [CBK283111] | 98.3% |
| CCC(=O)N1CCc2cc(C(O)CN3CCCCC3C)ccc21 (stereo not shown) [CBK283112] | 105% |
| CCOc1ccc2[nH]c(C(=O)NC3CCCOC3)cc2c1 (stereo not shown) [CBK283114] | 101% |
| CCc1c(C(=O)NC2CCCOC2)[nH]c2ccc(F)cc12 (stereo not shown) [CBK283115] | 97.5% |
| COc1ccccc1CN(CCCn1ccnc1)Cc1ccco1 [CBK283116] | 111% |
| C=CCNCc1cc2c(C)nn(-c3ccc(F)cc3)c2[nH]c1=O [CBK283117] | 111% |
| CCn1cc(CN(CCCn2ccnc2)Cc2cccc(F)c2)cn1 [CBK283124] | 107% |
| CCNC(=O)c1ccc(-n2cccn2)c(C#Cc2ccccn2)c1 [CBK283125] | 111% |
| O=C1CC[C@@H](NCc2ccccc2O)[C@H](c2cc(F)cc(F)c2)N1 [CBK283126] | 107% |
| O=C1CC[C@@H](NCc2ccco2)[C@H](c2cc(F)cc(F)c2)N1 [CBK283127] | 102% |
| Cc1ccc(O)c(CN[C@@H]2CCC(=O)N[C@H]2c2cc(F)cc(F)c2)c1 [CBK283132] | 94% |
| COc1ccccc1C1(O)CCCC2CN(C(C)=O)CC21 (stereo not shown) [CBK283134] | 102% |
| Cc1ccc(CN(CCCn2ccnc2)Cc2c[nH]cn2)s1 [CBK283136] | 95.1% |
| O=C(NCc1cc(C2CC2)[nH]n1)C1(c2ccccc2F)CC1 [CBK283140] | 97.6% |
| O=C(NC1CCCOC1)c1cc(-c2ccc(F)cc2)no1 (stereo not shown) [CBK283141] | 107% |
| CC1(C)CC(=O)c2cnc3cc(-c4ccco4)nn3c2C1 [CBK283142] | 102% |
| CC(=O)N1c2ccc(C(O)CN3CCSCC3)cc2CC1C (stereo not shown) [CBK283143] | 98.9% |
